Results from patent publication US6521649B1 (priority 1995, dated 2003).
Structures can show the parent of a compound that is named as a salt.

melting point | Compound
250 °C (dec.) | CCc1nnsc1C(=O)O (as salt: sodium) [compound 176, sodium 4-ethyl-1,2,3-thiadiazole-5-carboxylate]
105 to 107 °C | CCc1nnsc1C(=O)O [compound 178, t-butylammonium 4-ethyl-1,2,3-thiadiazole-5-carboxylate]
